Earlier results as cited in patent publication US20140073699A1, “Combination Therapies for the Treatment of Obesity” (Metabolous Pharmaceuticals, Inc., priority 2009, published 2014).

conditions: literature studies

| SMILES | weight loss of body weight for drug compared with placebo |
| --- | --- |
| CCCCCCCCCCC[C@@H](C[C@@H]1OC(=O)[C@H]1CCCCCC)OC(=O)[C@H](CC(C)C)NC=O [orlistat] | about 5% |
| CCN[C@@H](C)Cc1cccc(C(F)(F)F)c1 [dexfenfluramine] | about 5% |
| CC(C)CC(N(C)C)C1(c2ccc(Cl)cc2)CCC1 (stereo not drawn) [sibutramine] | about 5% |
